PMC9112662, “Scaffold stability and P14′ residue steric hindrance in the differential inhibition of FXIIa by Aedes aegypti trypsin inhibitor versus Infestin-4” (Bioscience Reports, 2022)
Positions of bridges follow the written chain, without caps; N, C: chain ends. No end group written: not given here.

Key:
FXIIa [1] = biological target: T1, FXIIa (Homo sapiens, UniProt P00748); conditions: n = 3; read-out: IC50 values toward FXIIa
T1 construct: gene F12; human FXIIa (Merck)
T1 sequence (P00748 373-615): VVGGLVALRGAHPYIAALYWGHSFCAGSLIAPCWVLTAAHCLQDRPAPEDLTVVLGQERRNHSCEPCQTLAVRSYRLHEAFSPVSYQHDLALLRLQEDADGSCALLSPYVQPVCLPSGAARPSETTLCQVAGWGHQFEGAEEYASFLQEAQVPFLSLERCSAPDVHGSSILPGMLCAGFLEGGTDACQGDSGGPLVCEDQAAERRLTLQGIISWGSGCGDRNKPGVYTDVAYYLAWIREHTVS
Procedure: For IC50 determination, FXIIa was pre-incubated with different concentrations of inhibitors. The generation of p-nitroaniline (pNA) was determined by measuring the absorbance at 405 nm using a absorbance plate reader (Tecan; Männedorf, Switzerland). The reaction mixture consisted of 40 µl FXIIa (10 nM), 40 µl inhibitor, and 40 µl chromogenic substrate (1 mM). All reaction components were prepared in 50 mM Tris pH 7.4 containing 100 mM NaCl.
For IC50 calculations, log[inhibitor concentration] vs. percentage normalized inhibition was plotted using a non-linear regression curve function, created with Kaleidagraph 4.5.2 (Synergy Software; Reading, PA). All data represent the mean ± SD for triplicate values.

plasmin = conditions: cited from earlier work
thrombin = conditions: cited from earlier work
From the text: The Kazal-type inhibitor, Aedes aegypti trypsin inhibitor (AaTI), is a novel trypsin Kazal-type inhibitor from Aedes aegypti, the primary vector of mosquito-borne diseases like dengue. […] AaTI has a similar structure to that of Inf4 [19], and with only a 3-residue difference in the reactive-site loop sequence. The reactive-site loop sequence makes most-if not all-of the direct contacts with the protease and is thought to be the sole factor that govern the inhibitor specificity.

[2] = biological target: human Factor XIIa (human) (UniProt P00748)
FXIIa [3] = conditions: cited from earlier work

Substance | IC50 (FXIIa [1]) | IC50 of inhibition of FXIIa activity, chromogenic assay (substrate S-2302) [2] | also measured
AaTI with C1C3 and C3C4 regions of Inf4 (His-tagged) [AaTI_Inf4 C1C3+C3C4] | 147 ± 42.9 nM | – | –
AaTI with C1C3 and C5C6 regions of Inf4 (His-tagged) [AaTI_Inf4 C1C3+C5C6] | 113 ± 16.7 nM | – | –
AaTI with C1C3 and C5C6 regions of Inf4 and N27G (His-tagged) [AaTI_Inf4 C1C3+C5C6+N27G] | 11.4 ± 3.1 nM | – | –
AaTI with C1C3 region of Inf4 (His-tagged) [AaTI_Inf4 C1C3] | 4680 ± 3830 nM | – | –
AaTI with C1C3 region of Inf4 and F10A (His-tagged) [AaTI_Inf4 C1C3+F10A] | 610 ± 206 nM | – | –
AaTI with C1C3 region of Inf4 and N27G (His-tagged) [AaTI_Inf4 C1C3+N27G] | 58 ± 14.8 nM | – | –
Aedes aegypti trypsin inhibitor, RSDAERGVCACPRIYMPVCGSNLKTYNNDCLLRCEINSDLGRANNLRKIADQACDNLTDNVNDFIPQEY (His-tagged) [Wild-type AaTI] | > 10000 nM | – | Ki (plasmin): 3.8 nM; Ki (thrombin): 320 nM
Inf4 with C6 region replaced with that of AaTI (His-tagged) [Inf4_AaTI C6] | 6.2 ± 0.8 nM | – | –
Inf4_F10P (domain or fragment) | – | 11.6 nM | –
Inf4_N12I (domain or fragment) | – | 8.4 nM | –
Inf4_V14M (domain or fragment) | – | 9.9 nM | –
KEVRNPCACFRNYVPVCGSDGKTYGNPCMLNCAAQTKVPGLKLVHEGRCQRSNVEQF (disulfide 7-32, 9-28, 17-49) [Wild-type Inf4] | – | – | Ki (FXIIa [3]): 0.128 nM; Ki (plasmin): 2.1 nM
Wild-type Infestin-4 (domain or fragment) | – | 3.1 nM | –
